Experiments:
[1] = system: T cells from cat-allergic patients; assay: Secondary proliferation assay of T cells primed with TRFP, peptide YXZ or peptide YZX; format: cell-based, human
Description: The human cat allergic T cell response to peptides produced as above was examined. […] Peptide YZX was cleaved with thrombin as described in Example 25. Viable cells were then purified by Ficoll-Hypaque centrifugation and cultured for 2 additional weeks in RPMI-1640/5% AB serum containing 5 units recombinant human IL-2/ml and 5 units recombinant human IL-4/ml. The resting T cells were then tested in a secondary proliferation assay using a 96 well microtiter plate to assess T cell responses to various TRFP proteins or peptides (TRFP antigens). For assay, 2×10^4 resting T cells were cultured for 3 days at 37° C. in the presence of 2×10^4 autologous Epstein-Barr virus transformed B cells (25,000 Rads) as antigen presenting cells with various concentrations of antigen in 200 μl per well. Each well then received 1 μCi tritiated thymidine for 16 hours. The counts incorporated were collected onto glass fiber filters and processed for liquid scintillation counting. The stimulation indices for responses to each antigen were then calculated as the maximum CPM in response to antigen divided by the medium control CPM. A stimulation index of 2.5 was considered to be a positive T cell response. A summary of the results of 3 such experiments (patients 522, 519, and 386 is shown in FIG. 35a, FIG. 35b and FIG. 35c). As compared to the experiments shown in FIGS. 35a and 35b in the experiment shown in […], Fel-1.4 (chain 1, amino acid residues 6-17) was substituted for Fel-1.2 (chain 1, amino acid residues 1-17) and Fel-33.3 (chain 2, amino acid residues 26-40) was substituted for Fel-18 (chain 2, amino acid residues 23-48) in order to more closely resemble the constituent amino acids of peptides X and Z. In addition, in this experiment one peptide derived from the Y-Z junction of peptide YZX (amino acid residues 50-55 from chain 1 of TRFP and amino acid residues 14-19 from chain 2 of TRFP) and one peptide derived from the Z-X junction of peptide YZX (amino acid residues 34-39 of chain 2 of TRFP and amino acid residues 7-12 of chain 1 of TRFP) were synthesized and tested. These junction peptides were produced in order to determine whether these areas of peptide YZX produce a non-native epitope when formed in the peptide.

[2] = system: human IgE (cat allergic patient plasma); assay: Direct binding ELISA of human IgE to coated antigen; conditions: for specific IgE binding: direct binding ELISA or similar protocol
Description: The basic format of these ELISA assays was a direct binding assay wherein the antigen was coated onto the wells of a 96 well microtitre dish and then antibodies in solution are added and assayed for the binding capacity. The protocol for these assays was as follows:
The peptides were conjugated to HSA (human serum albumin) by two different methods based on their chemical structure. […] Both conjugates were filter purified and dialyzed against PBS. In the ELISA assay, the unbound coating antigens were removed and the wells were blocked with 0.5% gelatin in PBS, 200 μl/well for 2 hours at room temperature. The antibody solution was a pool of plasma samples from 20 patients that were skin test positive for commercial cat extract which was serially diluted with PBS-Tween 20 (PBS with 0.05% nonionic detergent Tween-Sigma, St. Louis Mo.) and 100 μl/well was added and incubated overnight at 4° C. (plasma dilutions are tested in duplicate). […] The second antibody (biotinylated goat anti-Human IgE, 1:1000 Kirkegaard & Perry Laboratories Inc. Gaithersburg, Md.), was added at 100 μl/well for one hour at room temperature. This solution was removed and streptavidin-HRPO, 1:1000, (Southern Biotechnology Associates, Inc., Birmingham, Ala.) was then added at 100 μl/well for one hour at room temperature (all wells were washed three times with PBS-Tween between each incubation step). TMB Membrane Peroxidase Substrate system (Kirkegaard & Perry Laboratories) was freshly mixed, and added at 100 μl/well. The color was allowed to develop for 2-5 minutes. The reaction was stopped by the addition of […] of 1 M phosphoric acid. Plates are read on a Microplate EL 310 Autoreader (Biotek Instruments, Winooski, Vt.) with a 450 nm filter. The absorbance levels of duplicate wells were averaged.

basophils = assay: Histamine release from basophils in heparinized whole blood of cat allergic patients; format: cell-based, human; conditions: eight cat allergic patients
Description: The histamine release assay used for these studies is based on the detection of an acylated derivative of histamine using a specific monoclonal antibody (Morel, A. M. and Delaage, M. A.; 1988, J. Allergy Clin. Immunol. 82:646-654.) This assay was performed as two separate protocols: 1) the release of histamine from basophils present in heparinized whole blood in the presence of different concentrations of antigens and 2) the actual assaying of histamine present in the supernates of the release reactions following cell removal by centrifugation. The reagents for this histamine radioimmunoassay are supplied commercially as a kit by Amac Inc. (Westbrook, Me.).
Whole blood was drawn from cat allergic patients using heparinized syringes or vacutainers. […] The buffer control consisted of whole blood with just buffer and no added antigen. The release reactions were then carried out at 37° C. for 30 minutes. After this incubation the tubes were centrifuged at 1500 RPM for 3 minutes and the supernates were carefully removed. It was important to spin gently so that there would be no cell lysis giving misleading results. […]
For the RIA analysis, a 50 μl aliquot of the release supernatant was diluted 1:4 with Histamine release buffer (supplied with the kit from Amac Inc.) Then 100 μl of each diluted supernatant was added to the tubes containing the acylation reagent (a lyophilized powder). […] Then they were counted on a gamma counter (Cobra 5005, Beckman Inc.) for two minutes/tube.
Following the quantitation of ^125I label/tube the standard curve is generated from the histamine standard counts and plotted on semi-log paper. Because this is a competition assay, with labelled ^125I tracer competing with the standards or unknowns for cell supernatants, the lower the recorded counts the greater the amount of cold acylated histamine in the binding assay. The data points were then generated by reading off the values on the plotted standard curve of counts versus histamine concentration (in nM).

[3] = patient 519, cells primed with peptide YXZ
[4] = patient 522, T cells primed with YXZ
[5] = patient 386, T cells primed with YZX
[6] = patient 386, T cells primed with native TRFP
[7] = patient 519, native TRFP-primed T cells
[8] = patient 522, T cells primed with native TRFP, SI 2.5 positive

NARILKNCVDAKMTEEDKE [Fel 4, TRFP chain 1 amino acids 37-55]
T cell response [1, 3]: positive responses
T cell response [1, 4]: respond at a similar level or better

TRFP: human T cell reactive feline protein affinity purified from house dust; two covalently linked chains
Positive Binding ([2]; ELISA, percent of cat allergic patients with positive IgE binding): 100%
absorbance reading, IgE binding ([2]; pooled plasma, first dilution 1:2 in PBS): 0.65
histamine release (basophils): at all but the lowest concentration, gives a clear release signal
T cell response [1, 5]: respond at a similar level or better
T cell response [1, 6]: positively respond
T cell response [1, 3]: positive responses
T cell response [1, 7]: respond
T cell response [1, 4]: respond less well
T cell response [1, 8]: positively respond

peptide X: amino acid residues 7-30 from chain 1 of TRFP (SEQ. ID. NO: 17); Table 2 lists Fel 8-3 as 7-33 (KRDVDLFLTGTPDEYVEQVAQYKALPV)
specific IgE binding [2]: do not demonstrate any specific IgE binding
specific IgE binding ([2]; listed as Fel 8-3): No direct IgE binding
histamine release (basophils): no discernible histamine release
T cell response [1, 5]: respond at a similar level or better
T cell response [1, 6]: positively respond
T cell response [1, 3]: positive responses
T cell response [1, 4]: respond at a similar level or better

peptide Y: amino acid residues 29-55 from chain 1 of TRFP (SEQ. ID. NO: 18) (KALPVVLENARILKNCVDAKMTEEDKE)
specific IgE binding [2]: do not demonstrate any specific IgE binding
specific IgE binding ([2]; listed as Fel 30-4): No direct IgE binding
histamine release (basophils): no discernible histamine release
T cell response [1, 5]: respond at a similar level or better
T cell response [1, 6]: positively respond
T cell response [1, 3]: positive responses
T cell response [1, 7]: respond
T cell response [1, 4]: respond at a similar level or better
T cell response [1, 8]: positively respond

Source: patent US7482008B1, “Human T cell reactive feline protein (TRFP) isolated from house dust and uses therefor” (Merck Patent GmbH, priority 1989, dated 2009)
